These results are taken from patent publication US4197299A, “Anti-hypertensive derivatives of ergoline-2-thioethers and their sulphoxides” (priority 1977, dated 1980).

Each structure is given as a SMILES string. Counter-ions that a name gives are not always drawn. Like-named read-outs stand apart in the source and are kept apart here.

One test concerns ptosis due to reserpine. In words: Antagonism to ptosis due to reserpine (antidepressive activity). Format: in vivo. As to conditions: po. An excerpt: Antagonism to ptosis due to reserpine (B. M.
Another test can be described thus: Analgesic activity. Format: in vivo. As to conditions: for analgesic activity (in words): in vivo; for ED100: sc.
The test system of a further test is triptamine. Briefly: Antitriptaminic activity in vivo (g). As to conditions: sc, read-out: Antitriptaminic activity in vivo ED50. The source says: (g) S. J. Corne et al., Brit. J. Pharmacol., 20, 106, 1963
The nature of test [1]: Pharmacological properties, classical tests on laboratory animals. To be noted: in vivo. The source says: The compounds claimed in the present invention show interesting pharmacological properties, evidenced by means of classical tests on laboratory animals at extremely low doses.
Test [2] relates to adrenalin. Briefly: Antiadrenalin activity in vivo (b). An excerpt: (b) F. P. Luduena et al., Arch. Int. Pharmacodyn. 122, 111,
(d) G. Arcari et Coll., Experientia 28, 819,

Test [3] has as its system adrenalin. In words: Antiadrenalin activity in vitro (a). To be noted: for adrenolytic activity (in words): as seen from the table (in vitro and in vivo); for Antiadrenalin activity in vitro EC50: in vitro (a), adrenolytic. The source says:
(a) J. Brugger, Helv. Physiol. Pharm. Acta 3, 117,
(c) G. Arcari & coll., Brit. J. Pharmacol. 34, 700,

Another test concerns BaCl2. Briefly: Anti BaCl2 activity (spasmolytic) (e). The source says:
(e) Magnus Pflugers Arch. ges. Physiol., 102, 123,

Another test deals with 5HT. In words: Anti 5HT activity in vitro (f). To be noted: for anti-serotininic activity (in words): as seen from the table; for Anti 5HT activity in vitro EC50: in vitro (f).
A short description of test [4]: Antiasthmatic test (Goose, Immunology 16, 749, 1969). Format: in vivo.
Test [5] relates to adrenalin. As to conditions: iv, comparison value with reference (d) Arcari, Experientia 28, 819; cited from earlier work.
In test [6] the test system is adrenalin. To be noted: comparison value with reference (c) Arcari, Brit. J. Pharmacol. 34, 700; cited from earlier work.
The mark [7] stands for this setting: in vivo (b), iv, read-out: Antiadrenalin activity in vivo ED50.

In the test on ptosis due to reserpine, `CSc1c2c3c(cccc3n1C)[C@H]1C[C@@H](COC(=O)N3CCCC3)CN(C)[C@@H]1C2` [Compound 14, D-1,6-dimethyl-2-methylthio-8beta(pyrrolidinocarbonyloxymethyl)ergoline ma leate] came in with an ED100 of 0.025 mg/kg. In addition, in the test “Analgesic activity”, the “analgesic activity (in words)” value is given as “potent analgesic activity” and the ED100 worked out at 5 mg/kg.

In turn, `CSc1c2c3c(cccc3n1C)[C@H]1C[C@@H](COC(=O)N3CCCCCC3)CN(C)[C@@H]1C2` [Compound 16, D-1,6-dimethyl-2-methylthio-8beta(perhydroazepinylcarbonyloxymethyl)ergoline maleate] yielded an ED100 in the test on ptosis due to reserpine of 0.1 mg/kg.

Turning to `CSc1[nH]c2cccc3c2c1C[C@@H]1[C@@H]3C[C@@H](COC(=O)N2CCOCC2)CN1C` [Compound 11, D-6-methyl-2-methylthio-8beta(morpholinocarbonyloxymethyl)ergoline], the ED50 in the test on triptamine (in vivo (g)) turned out to be 0.05 mg/kg. Also, the “pharmacological properties (in words)” value in test [1] is reported as “broad spectrum of pharmacologycal properties”. In addition, the 50% effective dose (ED50) in the test with adrenalin [2] (setting [7]) was found to be 0.0188 mg/kg. In the test on adrenalin [3], the “adrenolytic activity (in words)” value is reported as “high” and the “Antiadrenalin activity in vitro EC50” value amounted to 1.3 ng/mL. The “Anti BaCl2 activity EC50” value in the test on BaCl2 turned out to be 10000 ng/mL. In addition, in the test on 5HT, the “anti-serotininic activity (in words)” value was “high” and the “Anti 5HT activity in vitro EC50” value is 0.01 ng/mL.

In the case of `CCC(=O)O[C@](Cc1ccccc1)(c1ccccc1)[C@H](C)CN(C)C` [D-propoxyphene, reference compound], in the test “Analgesic activity”, the ED100 worked out at 10 mg/kg.

For `CSc1c2c3c(cccc3n1C)[C@H]1C[C@@H](COC(=O)N3CCCCC3)CN(C)[C@@H]1C2` [Compound 15, D-1,6-dimethyl-2-methylthio-8beta(piperidinocarbonyloxymethyl)ergolinemaleate], the ED100 in the test with ptosis due to reserpine is 0.01 mg/kg.

For the compound `CSc1[nH]c2cccc3c2c1C[C@@H]1[C@@H]3C[C@@H](COC(=O)N2CCCCCC2)CN1C` [Compound 10, D-6-methyl-2-methylthio-8beta(perhydroazepinylcarbonyloxymethyl)ergoline], the 50% effective dose (ED50) with adrenalin [2] (route not printed there, read-out: adrenolytic ED50) was found to be 0.02 mg/kg. This compound also registered an ED100 in [4] (po, per os) of 1 mg/kg.

The compound `CCN(CC)C(=O)OC[C@@H]1C[C@@H]2c3cccc4c3c(c(SC)n4C)C[C@H]2N(C)C1` [Compound 13, D-1.6-dimethyl-2-methylthio-8beta(diethylaminocarbonyloxymethyl)ergoline maleate] returned an ED100 in the test on ptosis due to reserpine of 0.5 mg/kg.

For the compound `CSc1c2c3c(cccc3n1C)[C@H]1C[C@@H](COC(=O)N(C)C)CN(C)[C@@H]1C2` [Compound 12, D-1,6-dimethyl-2-methylthio-8beta(dimethylaminocarbonyloxymethyl)ergoline maleate], the ED100 in the test on ptosis due to reserpine turned out to be 0.025 mg/kg. In addition, in “Analgesic activity”, the “analgesic activity (in words)” value is reported as “potent analgesic activity” and the ED100 was 2.5 mg/kg.

Turning to `COc1ccc(Cc2nccc3cc(OC)c(OC)cc23)cc1OC` [papaverine, reference compound], the “Anti BaCl2 activity EC50” value with BaCl2 was determined as 8900 ng/mL.

As for `CN1C[C@H](CNC(=O)OCc2ccccc2)C[C@@H]2c3cccc4c3c(cn4C)C[C@H]21` [metergoline, reference compound], the ED50 with triptamine was 0.062 mg/kg.

Consider `CN(C)CCCN1c2ccccc2CCc2ccccc21` [imipramine, reference compound], for which, in the test on ptosis due to reserpine, the ED100 was 25 mg/kg.

`CSc1c2c3c(cccc3n1C)[C@H]1C[C@@H](COC(=O)N3CCOCC3)CN(C)[C@@H]1C2` [Compound 17, D-1,6-dimethyl-2-methylthio-8beta(morpholinecarbonyloxymethyl)ergoline]: the ED100 with ptosis due to reserpine was 0.5 mg/kg.

Take `CSc1[nH]c2cccc3c2c1C[C@@H]1[C@@H]3C[C@@H](COC(=O)N2CCCCC2)CN1C` [Compound 9, D-6-methyl-2-methylthio-8beta(piperidinocarbonyloxymethyl)ergoline]: the ED50 with triptamine (in vivo (g)) turned out to be 10 mg/kg. The “pharmacological properties (in words)” value in [1] was “broad spectrum of pharmacologycal properties”. Also, the ED50 in the test on adrenalin [2] (setting [7]) stood at 0.031 mg/kg. Moreover, in the test on adrenalin [3], the “adrenolytic activity (in words)” value is “high” and the “Antiadrenalin activity in vitro EC50” value turned out to be 1.8 ng/mL. For the same compound, the “Anti BaCl2 activity EC50” value with BaCl2 amounted to 2200 ng/mL. For the same compound, in the test on 5HT, the “anti-serotininic activity (in words)” value is given as “high” and the “Anti 5HT activity in vitro EC50” value came to 1 ng/mL.

`CO[C@]12C[C@@H](COC(=O)c3cncc(Br)c3)CN(C)[C@@H]1Cc1cn(C)c3cccc2c13` [nicergoline]: in the test with adrenalin [5], the “Antiadrenalin activity in vivo ED50” value was 20 μg/kg/iv. In addition, the “Antiadrenalin activity in vitro EC50” value with adrenalin [6] is 7 ng/mL.

As to `O=C(O)c1cc(=O)c2c(OCC(O)COc3cccc4oc(C(=O)O)cc(=O)c34)cccc2o1` [sodium chromoglycate], the ED100 in [4] (iv) was found to be 5 mg/kg. In addition, the “antiasthmatic activity by route” value in [4] (parenteral versus oral route) is given as “active only by the parenteral route, not by the oral route”.
